Experimental data from patent US8969325B2, “TRPV1 antagonists” (AbbVie Inc., priority 2011, dated 2015).

Key:
human TRPV1 [1] = target: T1, human TRPV1 (Homo sapiens (Human), UniProt Q8NER1); assay: Capsaicin Activation Assay (intracellular Ca2+, FLIPR); type: cell-based; conditions: recombinant HEK293 cells expressing hTRPV1, 50 nM capsaicin
Procedure: (Logan, Utah). Dulbecco's phosphate-buffered saline (D-PBS) (with 1 mg/mL glucose and 3.6 mg/l Na pyruvate, without phenol red), L-glutamine, hygromycin B, and Lipofectamine® were obtained from Life Technologies (Grand Island, N.Y.). G418 sulfate was obtained from Calbiochem-Novabiochem Corp. (San Diego, Calif.). […] (St. Louis, Mo.). […] The cDNA for human TRPV1 (hTRPV1) was isolated by reverse transcriptase-polymerase chain reaction (RT-PCR) from human small intestine poly A+ RNA supplied by Clontech (Palo Alto, Calif.) using primers designed surrounding the initiation and termination codons identical to the published sequences (Hayes et al. […] The resulting cDNA PCR products were subcloned into pCIneo mammalian expression vector (Promega) and fully sequenced using fluorescent dye-terminator reagents (Prism, PerkinElmer Applied Biosystems Division) and a PerkinElmer Applied Biosystems Model 373 DNA sequencer or Model 310 genetic analyzer. Expression plasmids encoding the hTRPV1 cDNA were transfected into HEK293 cells using Lipofectamine®. Forty-eight hours after transfection, the neomycin-resistant cells were selected with growth medium containing 800 μg/mL Geneticin (Life Technologies, formerly Gibco BRL). Surviving individual colonies were isolated and screened for TRPV1 activity. […] Compound stocks, 10 mM, were prepared in DMSO, and diluted serially across a 384-well plate using a Bravo BenchCel workstation (Agilent Technologies, Santa Clara, Calif.). […] On the day prior to the experiment, the recombinant HEK293 cells expressing human TRPV1 (hTRPV1) were removed from tissue culture flasks and plated in growth medium into black-walled clear-bottom 384-well Biocoat™ poly-D-lysine assay plates (BD Biosciences, Bedford, Mass.) using a Multidrop® dispenser (ThermoScientific, Waltham, Mass.). […] Molecular Devices, Sunnyvale, Calif.) was added to each well using the Multidrop® dispenser. […] Fluorescence readings were made at 1 to 5 second intervals over the course of the experimental run.

human TRPV1 [2] = target: T1, human TRPV1; assay: Acid Activation Assay (pH 5.0, intracellular Ca2+, FLIPR); type: cell-based; conditions: percentage of the maximal pH 5.0-induced response remaining; recombinant HEK293 hTRPV1 cells; maximum concentration tested 37.5 μM
Procedure: Dulbecco's modified Eagle's medium (DMEM) with 4.5 m g/mL D-glucose, fetal bovine serum, L-glutamine, and 2-morpholinoethanesulfonic acid (MES) were purchased from Sigma-Aldrich Co. (St. Louis, Mo.). Dulbecco's phosphate-buffered saline (DPBS) with Ca^2+, Mg^2+, and 1 mg/mL D-glucose (pH 7.4), Geneticin®, 0.25% trypsin-1 mM EDTA, and penicillin-streptomycin were purchased from Invitrogen Corp. (Carlsbad, Calif.). The FLIPR® Calcium 4 assay kit was purchased from Molecular Devices (Sunnyvale, Calif.).
The cDNA for human TRPV1 (hTRPV1) was isolated by reverse transcriptase-polymerase chain reaction (RT-PCR) from human small intestine poly A+ RNA supplied by Clontech (Palo Alto, Calif.) using primers designed surrounding the initiation and termination codons identical to the published sequences (Hayes et al. Pain 2000, 88, 205-215). The resulting cDNA PCR products were subcloned into pCIneo mammalian expression vector (Promega) and fully sequenced using fluorescent dye-terminator reagents (Prism, PerkinElmer Applied Biosystems Division) and a PerkinElmer Applied Biosystems Model 373 DNA sequencer or Model 310 genetic analyzer. Expression plasmids encoding the hTRPV1 cDNA were transfected into HEK293 cells using Lipofectamine®. Forty-eight hours after transfection, the neomycin-resistant cells were selected with growth medium containing 800 μg/mL Geneticin (Life Technologies, formerly Gibco BRL). Surviving individual colonies were isolated and screened for TRPV1 activity. Cells expressing recombinant TRPV1 were maintained at 37° C. in DMEM containing 4 mM L-glutamine, 300 μg/mL G418 (Calbiochem) and 10% fetal bovine serum under a humidified 5% CO2 atmosphere.
The functional activity of compounds at the TRPV1 receptor was determined by measurement of intracellular Ca^2+ levels ([Ca^2+]i) using the Fluorescence Imaging Plate Reader (FLIPR)TETRA®. All compounds were tested over a 12-point one-half-log concentration range with 37.5 μM being the maximum concentration tested. Compound stocks, 10 mM, were prepared in DMSO, and diluted serially across a 384-well plate using a Bravo BenchCel workstation (Agilent Technologies, Santa Clara, Calif.). On the day prior to the experiment, the recombinant HEK293 cells expressing human TRPV1 (hTRPV1) were removed from tissue culture flasks and plated in growth medium into black-walled clear-bottom 384-well Biocoat™ poly-D-lysine assay plates (BD Biosciences, Bedford, Mass.) using a Multidrop® dispenser (ThermoScientific, Waltham, Mass.). On the day of the experiment growth medium was removed, and the no-wash FLIPR® Calcium-4 dye (λEX=470-495 nm, λEM=515-575 nm) was added to each well using the Multidrop® dispenser. The plated cells were incubated for 90-120 min in the dark at 25° C. The test compounds dissolved in DMSO were then added to the plates using an Agilent Bravo workstation (Agilent Technologies Inc., Santa Clara, Calif.). Three minutes later, a pH 5.0 solution was added to each well. Reagents were delivered at a rate of 40 μL/sec, and the final assay volume was 80 μL. Acidic pH solutions were prepared by titration of DPBS/MES with 1 N HCl. The intensity of the fluorescence was captured and digitally transferred to an interfaced PC. The maximum peak measured for the concentration range tested was used to calculate the corresponding peak increase in fluorescence over baseline (relative fluorescence units) which was expressed as the percentage (max % remain) of the maximal pH 5.0-induced response.
Table 1 reports the percentage (max % remain) of the maximal pH 5.0-induced response measured for the compounds tested in the recombinant HEK293 cell assay. Most of the compounds tested inhibited calcium flux only partially following TRPV1 activation by the pH 5.0 solution.

T1 sequence (Q8NER1 whole entry): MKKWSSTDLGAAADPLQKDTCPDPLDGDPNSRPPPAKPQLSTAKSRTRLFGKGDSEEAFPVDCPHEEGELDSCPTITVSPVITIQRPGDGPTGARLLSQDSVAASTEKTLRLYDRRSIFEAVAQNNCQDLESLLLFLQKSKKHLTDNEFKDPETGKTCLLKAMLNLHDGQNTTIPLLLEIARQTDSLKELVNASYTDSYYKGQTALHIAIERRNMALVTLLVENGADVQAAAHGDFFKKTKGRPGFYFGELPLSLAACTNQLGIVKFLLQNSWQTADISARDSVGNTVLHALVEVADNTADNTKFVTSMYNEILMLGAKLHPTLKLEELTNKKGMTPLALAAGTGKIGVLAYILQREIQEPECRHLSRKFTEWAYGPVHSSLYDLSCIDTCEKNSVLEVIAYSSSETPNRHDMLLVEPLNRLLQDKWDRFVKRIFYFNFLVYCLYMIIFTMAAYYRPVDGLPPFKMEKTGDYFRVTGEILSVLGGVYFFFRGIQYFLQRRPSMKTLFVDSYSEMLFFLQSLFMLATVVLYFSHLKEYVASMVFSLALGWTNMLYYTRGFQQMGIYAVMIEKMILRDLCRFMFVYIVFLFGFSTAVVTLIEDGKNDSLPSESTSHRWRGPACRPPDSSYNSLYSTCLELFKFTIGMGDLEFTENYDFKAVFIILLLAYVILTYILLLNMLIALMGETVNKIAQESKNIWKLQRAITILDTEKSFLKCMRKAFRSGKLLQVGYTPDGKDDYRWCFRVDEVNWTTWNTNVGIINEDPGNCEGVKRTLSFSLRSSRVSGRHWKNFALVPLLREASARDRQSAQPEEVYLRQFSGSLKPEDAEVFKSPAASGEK

IC50 (human TRPV1 [1]) [µM]	human TRPV1 H^+ (max % remain) (human TRPV1 [2]) [%]	Compound
0.3	30	CN1C(=O)NCc2c(NC(=O)N[C@@H]3CC(CF)(CF)Oc4ccccc43)cccc21 [Example 9, 1-[(4R)-2,2-bis(fluoromethyl)-3,4-dihydro-2H-chromen-4-yl]-3-(1-methyl-2-oxo-1,2,3,4-tetrahydroquinazolin-5-yl)urea]
0.017	19	CN1C(=O)NCc2c(NC(=O)N[C@@H]3C[C@](C)(C(F)F)Oc4cc(Cl)ccc43)cccc21 [Example 10, 1-[(2R,4R)-7-chloro-2-(difluoromethyl)-2-methyl-3,4-dihydro-2H-chromen-4-yl]-3-(1-methyl-2-oxo-1,2,3,4-tetrahydroquinazolin-5-yl)urea]
0.021	32	CN1C(=O)NCc2c(NC(=O)N[C@@H]3C[C@@](C)(C(F)F)Oc4cc(Cl)ccc43)cccc21 [Example 11, 1-[(2S,4R)-7-chloro-2-(difluoromethyl)-2-methyl-3,4-dihydro-2H-chromen-4-yl]-3-(1-methyl-2-oxo-1,2,3,4-tetrahydroquinazolin-5-yl)urea]
0.032	28	CN1C(=O)NCc2c(NC(=O)N[C@@H]3C[C@](C)(C(F)F)Oc4ccccc43)cccc21 [Example 12, 1-[(2R,4R)-2-(difluoromethyl)-2-methyl-3,4-dihydro-2H-chromen-4-yl]-3-(1-methyl-2-oxo-1,2,3,4-tetrahydroquinazolin-5-yl)urea]
–	19	CCC1(CC)C[C@@H](NC(=O)Nc2cccc3c2CNC(=O)N3C)c2ccc(F)cc2O1 [Example 143, 1-[(4R)-2,2-diethyl-7-fluoro-3,4-dihydro-2H-chromen-4-yl]-3-(1-methyl-2-oxo-1,2,3,4-tetrahydroquinazolin-5-yl)urea]
–	35	CN1C(=O)NCc2c(NC(=O)N[C@@H]3CC(C)(C)c4ccccc43)cccc21 [Example 158, 1-[(1R)-3,3-dimethyl-2,3-dihydro-1H-inden-1-yl]-3-(1-methyl-2-oxo-1,2,3,4-tetrahydroquinazolin-5-yl)urea]
–	60	CN1Cc2ccc(NC(=O)N[C@@H]3CC(C)(C)Oc4c(F)cccc43)cc2NC1=O [Example 210, 1-[(4R)-8-fluoro-2,2-dimethyl-3,4-dihydro-2H-chromen-4-yl]-3-(3-methyl-2-oxo-1,2,3,4-tetrahydroquinazolin-7-yl)urea]
–	79	CN1C(=O)CCc2ccc(NC(=O)N[C@@H]3CCOc4c3cccc4C(F)(F)F)cc21 [Example 284, 1-(1-methyl-2-oxo-1,2,3,4-tetrahydroquinolin-7-yl)-3-[(4R)-8-(trifluoromethyl)-3,4-dihydro-2H-chromen-4-yl]urea]

Further lines, the compound ahead of its results:

Compound	IC50 (human TRPV1 [1]) [µM]	human TRPV1 H^+ (max % remain) (human TRPV1 [2]) [%]
1-(1-methyl-2-oxo-1,2,3,4-tetrahydroquinazolin-5-yl)-3-[(4R)-8-(trifluoromethoxy)-3,4-dihydro-2H-chromen-4-yl]urea [Example 138]	0.038	19
1-[(2R,4R)-7-chloro-2-(difluoromethyl)-2-methyl-3,4-dihydro-2H-chromen-4-yl]-3-(2-oxo-1,2,3,4-tetrahydroquinolin-7-yl)urea [Example 30]	0.004	31
1-[(2S,4R)-2-(fluoromethyl)-2-methyl-7-(trifluoromethyl)-3,4-dihydro-2H-chromen-4-yl]-3-(1-methyl-2-oxo-1,2-dihydroquinolin-5-yl)urea [Example 84]	0.023	40
1-[(4R)-7-chloro-2,2-diethyl-3,4-dihydro-2H-chromen-4-yl]-3-(1-methyl-2-oxo-1,2,3,4-tetrahydroquinazolin-5-yl)urea [Example 145]	0.16	7
CN1C(=O)NCc2c(NC(=O)N[C@@H]3CC(C)(C)Oc4cc(F)ccc43)cccc21 [Example 1, 1-[(4R)-7-fluoro-2,2-dimethyl-3,4-dihydro-2H-chromen-4-yl]-3-(1-methyl-2-oxo-1,2,3,4-tetrahydroquinazolin-5-yl)urea]	0.01	25
CN1C(=O)NCc2c(NC(=O)N[C@@H]3CC(CF)(CF)Oc4c3ccc(Cl)c4F)cccc21 [Example 3, 1-[(4R)-7-chloro-8-fluoro-2,2-bis(fluoromethyl)-3,4-dihydro-2H-chromen-4-yl]-3-(1-methyl-2-oxo-1,2,3,4-tetrahydroquinazolin-5-yl)urea]	–	19
CN1C(=O)NCc2c(NC(=O)N[C@@H]3CC(C)(C)Oc4ccccc43)cccc21 [Example 4, 1-[(4R)-2,2-dimethyl-3,4-dihydro-2H-chromen-4-yl]-3-(1-methyl-2-oxo-1,2,3,4-tetrahydroquinazolin-5-yl)urea]	–	35
CN1C(=O)NCc2c(NC(=O)N[C@@H]3CC(C)(C)Oc4c3ccc(F)c4Cl)cccc21 [Example 5, 1-[(4R)-8-chloro-7-fluoro-2,2-dimethyl-3,4-dihydro-2H-chromen-4-yl]-3-(1-methyl-2-oxo-1,2,3,4-tetrahydroquinazolin-5-yl)urea]	0.017	24
CN1C(=O)NCc2c(NC(=O)N[C@@H]3CC(C)(C)Oc4cc(Cl)ccc43)cccc21 [Example 6, 1-[(4R)-7-chloro-2,2-dimethyl-3,4-dihydro-2H-chromen-4-yl]-3-(1-methyl-2-oxo-1,2,3,4-tetrahydroquinazolin-5-yl)urea]	–	30
CN1C(=O)NCc2c(NC(=O)N[C@@H]3C[C@](C)(CF)Oc4cc(Cl)ccc43)cccc21 [Example 7, 1-[(2R,4R)-7-chloro-2-(fluoromethyl)-2-methyl-3,4-dihydro-2H-chromen-4-yl]-3-(1-methyl-2-oxo-1,2,3,4-tetrahydroquinazolin-5-yl)urea]	0.051	27
CCN1C(=O)NCc2c(NC(=O)N[C@@H]3CC(C)(C)Oc4ccccc43)cccc21 [Example 8, 1-[(4R)-2,2-dimethyl-3,4-dihydro-2H-chromen-4-yl]-3-(I-ethyl-2-oxo-1,2,3,4-tetrahydroquinazolin-5-yl)urea]	0.094	1
